Assay [1] has as its system ZIKV mosquito strain MEX 2-81. The assay is described as follows: Plaque assay, inhibition of ZIKV infection (strain MEX 2-81). The format is cell-based. The settings on record: Zika virus, Vero C1008; plaque assay, Vero E6 cells, mosquito strain; read-out: IC50 MEX 2-81. Here is the method:
(§1) After removal of the unbound compounds by centrifugation (after addition of 3% PEG-6000), ZIKV was incubated with Vero E6 cells in 24-well plates at 37°C for 1 h. The cells were then washed with PBS, overlaid with DMEM containing 1% carboxymethyl cellulose and 2% FBS, and cultured at 37°C for 4–5 days, followed by being stained with 0.5% crystal violet. […] Plaques in each well were calculated, and IC50 of compounds for each compound was calculated using the CalcuSyn computer program.

The test system of assay [2] is ZIKV human strain PLCal_ZV. The assay can be described thus: Plaque assay, inhibition of ZIKV infection (strain PLCal_ZV). The settings on record: Zika virus, Vero C1008; plaque assay, Vero E6 cells, human strain; read-out: IC50 PLCal_ZV. The format is cell-based. Here is the method: as §1
Assay [3] concerns 8 human ZIKV strains (PAN2016, R116265, PAN2015, FLR, R103451, PRVABC59, PLCal_ZV, IbH 30656). The assay can be described thus: microbe, parasite or virus in culture. The format is cell-based. The settings on record: Zika virus, read-out: Average IC50 (human strains). Here is the method:
as §1

The subject of assay [4] is DENV-1-V1792. The assay is described as follows: Plaque assay, inhibition of DENV-1 infection in LLC-MK2 cells. The settings on record: Dengue virus, DENV1. Type of assay: cell-based.
For assay [5], the system named is DENV-2-V594. The assay can be described thus: Plaque assay, inhibition of DENV-2 infection in LLC-MK2 cells. Type of assay: cell-based. The settings on record: Dengue virus, DENV2.
Assay [6] has as its system ZIKV human strain R116265. The assay is described as follows: ZIKV vertical transmission in pregnant Ifnar1−/− mice. Type of assay: in vivo. The settings on record: 5 dpi. Here is the method: Briefly, groups of 5 pregnant mice (10–12-week-old, E12-14) were i.p. injected with ST087010 (20 mg/kg of body weight, 200 μl/mouse), or DMSO (negative control), 12 h before and 6, 24, and 48 h after i.p. infection with ZIKV (human strain R116265, 10^3 PFU). Five days post-infection, mice were sacrificed; viral titers were assessed using plaque assay in the sera, placenta, fetal brain, and amniotic fluid, and uteri and fetuses were assessed for morphological and size changes. The placenta was also assessed for apoptosis and viral replication by immunofluorescence staining, as described below.
Immunofluorescence staining was carried out to detect ZIKV and caspase-3 signals in ZIKV-infected mouse tissues. Briefly, tissues were fixed in 4% formaldehyde, embedded in paraffin, and sectioned. The tissue sections were deparaffinized, fixed, and permed using the FIX and PERM Cell Permeabilization Kit (Thermo Fisher Scientific, Waltham, MA, USA). After blocking with 5% BSA, the tissue slides were incubated at 37°C 2 h with ZIKV EDIII-specific human mAb (ZV-67, 1:100, Absolute Antibody, Boston, MA, USA), or rabbit anti-active caspase-3 antibody (1:100, Abcam). The slides were washed with PBS and incubated for 30 min with anti-human FITC antibody (1:100, for ZIKV), or anti-rabbit Alexa Fluor 647 antibody (1:100, for caspase-3). The slides were then counterstained for nuclei, using DAPI (300 nM, Thermo Fisher Scientific, Waltham, MA, USA) for 5 min, and mounted in VectaMount Permanent Mounting Medium (Vector Laboratories, CA, USA). The slides were analyzed using a confocal microscope (Zeiss LSM 880) and ZEN software, and fluorescent signals were quantified by ImageJ software.

Turning to `Cc1cc2c(C(C)C)c(O)c(O)c(/C=N/n3c(=O)[nH][nH]c3=O)c2c(O)c1-c1c(C)cc2c(C(C)C)c(O)c(O)c(/C=N/n3c(=O)[nH][nH]c3=O)c2c1O` [ST087010], the IC50 in assay [1] amounted to 2.9 µM; in assay [2], 2.2 µM; in assay [3], 2.9 µM; in assay [4], 3.01 ± 0.11 µM; in assay [5] it was 3.19 ± 0.01 µM. In addition, the “Staining of ZIKV+ or caspase-3 signals in placental tissues” value in assay [6] (immunofluorescence, compared to DMSO) is “undetectable, or diminished”. For the same compound, the “Viral titers in sera, placenta, fetal brain, and amniotic fluid” value in assay [6] (pregnant mice, 20 mg/kg i.p., ZIKV R116265 10^3 PFU, compared to DMSO) was “significantly reduced”. In assay [6] (pregnant mice, 20 mg/kg i.p., ZIKV R116265), the Condition of fetuses result was “all in good condition”.
